Assay results published in US6727264B1 (Synaptic Pharmaceutical Corporation, priority 2001, dated 2004).
Where two headings read alike, the source gives them in different places.

Biological target: rat MCH-1 (Rattus norvegicus, UniProt P97639)
Experiment: Radioligand binding assay at cloned rat MCH1 receptor ([3H] Compound A)
Parameters: host or cells: Peak rapid 293 (Peakr293) cells, transient calcium phosphate transfection, membranes
Settings: cloned rat MCH1 receptor, 0.08 nM [3H] Compound A, read-out: Ki (nM) rMCH1

Chain of rat MCH-1 (P97639 whole entry): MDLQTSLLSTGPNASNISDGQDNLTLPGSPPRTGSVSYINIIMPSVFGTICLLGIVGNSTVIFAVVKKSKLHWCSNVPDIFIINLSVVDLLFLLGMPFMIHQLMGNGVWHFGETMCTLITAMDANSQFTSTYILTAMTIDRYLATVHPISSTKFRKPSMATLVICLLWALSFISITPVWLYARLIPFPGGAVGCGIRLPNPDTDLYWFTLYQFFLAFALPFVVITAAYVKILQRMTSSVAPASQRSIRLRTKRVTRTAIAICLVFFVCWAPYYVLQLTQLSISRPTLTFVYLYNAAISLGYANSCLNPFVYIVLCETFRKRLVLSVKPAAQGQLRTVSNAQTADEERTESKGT

Ki (membranes from Peakr293 cells)	Ki (Peakr293 cell membranes)	Structure (SMILES)
19.2 nM	–	CC(C)C(=O)Nc1cccc(C2CCN(CC[C@H](NC(=O)c3ccco3)c3ccccc3)CC2)c1 [Example 326]
7.7 nM	–	CC(C)C(=O)Nc1cccc(C2CCN(CC[C@H](NC(=O)c3cnn(-c4ccc([N+](=O)[O-])cc4)c3C(F)(F)F)c3ccccc3)CC2)c1 [Example 327]
47.6 nM	–	Cc1onc(-c2c(F)cccc2Cl)c1C(=O)NCCCN1CCC(c2cccc(NC(=O)C(C)C)c2)CC1 [Example 328]
215 nM	–	CC(C)C(=O)Nc1cccc(C2CCN(CCCNC(=O)c3csc4ccccc34)CC2)c1 [Example 330]
51.3 nM	–	Cc1onc(-c2ccccc2Cl)c1C(=O)NCCCN1CCC(c2cccc(NC(=O)C(C)C)c2)CC1 [Example 331]
29 nM	–	Cc1onc(-c2c(Cl)cccc2Cl)c1C(=O)NCCCN1CCC(c2cccc(NC(=O)C(C)C)c2)CC1 [Example 332]
568 nM	–	CC(=O)c1cccc(O[C@H](CN2CCC(c3cccc(NC(=O)C(C)C)c3)CC2)c2ccccc2)c1 [Example 333]
603 nM	–	CC(=O)c1ccccc1O[C@H](CN1CCC(c2cccc(NC(=O)C(C)C)c2)CC1)c1ccccc1 [Example 334]
888 nM	–	CC(C)C(=O)Nc1cccc(C2CCN(C[C@@H](Oc3cccc(Cl)c3)c3ccccc3)CC2)c1 [Example 335]
693 nM	–	COc1ccc(O[C@H](CN2CCC(c3cccc(NC(=O)C(C)C)c3)CC2)c2ccccc2)cc1OC [Example 336]
907 nM	–	CC(C)C(=O)Nc1cccc(C2CCN(C[C@H](Oc3ccc(F)cc3)c3ccccc3)CC2)c1 [Example 337]
844 nM	–	COc1cccc(O[C@@H](CN2CCC(c3cccc(NC(=O)C(C)C)c3)CC2)c2ccccc2)c1 [Example 338]
890 nM	–	CC(C)C(=O)Nc1cccc(C2CCN(C[C@H](Oc3cccc(Cl)c3)c3ccccc3)CC2)c1 [Example 339]
15.6 nM	–	CC(=O)c1cccc(O[C@@H](CCN2CCC(c3cccc(NC(=O)C4CC4)c3)CC2)c2ccccc2)c1 [Example 340]
256 nM	–	CC(=O)c1cccc(OCCCN2CCC(c3cccc(NC(=O)C(C)C)c3)CC2)c1 [Example 341]
183 nM	–	CC(=O)c1cccc(OCCCN2CCC(c3cccc(NC(=O)C4CC4)c3)CC2)c1 [Example 342]
195 nM	–	CC(C)C(=O)Nc1cccc(C2CCN(CCCOc3ccccc3F)CC2)c1 [Example 343]
15.4 nM	–	CC(C)C(=O)Nc1cccc(C2CCN(CCCOc3ccc(Cl)cc3)CC2)c1 [Example 345]
107 nM	–	CC(C)C(=O)Nc1cccc(C2CCN(CCCOc3cccc(F)c3)CC2)c1 [Example 346]
54.8 nM	–	CC(C)C(=O)Nc1cccc(C2CCN(CCCOc3ccc(F)cc3)CC2)c1 [Example 347]
84 nM	–	CC(C)C(=O)Nc1cccc(C2CCN(CCCOc3ccccc3Cl)CC2)c1 [Example 348]
20.4 nM	–	Cc1ccc(OCCCN2CCC(c3cccc(NC(=O)C(C)C)c3)CC2)cc1C [Example 349]
12.1 nM	–	CC(C)C(=O)Nc1cccc(C2CCN(CCCOc3ccccc3Br)CC2)c1 [Example 350]
61.8 nM	–	CC(C)C(=O)Nc1cccc(C2CCN(CCCOc3cccc(Br)c3)CC2)c1 [Example 351]
13.3 nM	–	CC(C)C(=O)Nc1cccc(C2CCN(CCCOc3ccc(Br)cc3)CC2)c1 [Example 352]

Ki (membranes from Peakr293 cells)	Ki (Peakr293 cell membranes)	Structure (SMILES)
41.8 nM	–	COc1ccc(O[C@H](CCN2CCC(c3cccc(N(C)C(=O)C(C)C)c3)CC2)c2ccccc2)cc1OC [Example 353]
81.6 nM	–	CC(=O)c1cccc(O[C@H](CCN2CCC(c3cccc(N(C)C(=O)C(C)C)c3)CC2)c2ccccc2)c1 [Example 354]
117 nM	–	CC(=O)c1cccc(O[C@@H](CCN2CCC(c3cccc(N(C)C(=O)C(C)C)c3)CC2)c2ccccc2)c1 [Example 355]
54.5 nM	–	CC(C)C(=O)Nc1cccc(C2CCN(C[C@H](C)COc3ccc(Br)cc3)CC2)c1 [Example 356]
115 nM	–	CC(C)C(=O)Nc1cccc(C2CCN(C[C@H](C)COc3cc(F)c(F)cc3F)CC2)c1 [Example 357]
136 nM	–	CC(C)C(=O)Nc1cccc(C2CCN(C[C@H](C)COc3cccc(Cl)c3)CC2)c1 [Example 358]
83.2 nM	–	CC(C)C(=O)Nc1cccc(C2CCN(C[C@H](C)COc3ccc(F)cc3)CC2)c1 [Example 359]
163 nM	–	CC(C)C(=O)Nc1cccc(C2CCN(C[C@H](C)COc3cccc(F)c3)CC2)c1 [Example 360]
311 nM	–	CC(C)C(=O)Nc1cccc(C2CCN(C[C@H](C)COc3ccccc3Cl)CC2)c1 [Example 361]
281 nM	–	CC(C)C(=O)Nc1cccc(C2CCN(C[C@H](C)COc3ccccc3F)CC2)c1 [Example 362]
31.6 nM	–	CC(C)C(=O)Nc1cccc(C2CCN(C[C@H](C)COc3ccc(Cl)cc3)CC2)c1 [Example 363]
144 nM	–	CC(C)C(=O)Nc1cccc(C2CCN(C[C@H](C)COc3cccc(Br)c3)CC2)c1 [Example 364]
42.9 nM	–	CC(C)C(=O)Nc1cccc(C2CCN(C[C@H](C)COc3ccccc3Br)CC2)c1 [Example 365]
646 nM	–	CC(C)C(=O)Nc1cccc(C2CCN(C[C@@H](C)COc3cccc(F)c3)CC2)c1 [Example 366]
236 nM	–	CC(C)C(=O)Nc1cccc(C2CCN(C[C@@H](C)COc3ccc(F)cc3)CC2)c1 [Example 367]
313 nM	–	CC(C)C(=O)Nc1cccc(C2CCN(C[C@@H](C)COc3ccccc3Cl)CC2)c1 [Example 368]
145 nM	–	CC(C)C(=O)Nc1cccc(C2CCN(C[C@@H](C)COc3ccc(Cl)cc3)CC2)c1 [Example 369]
163 nM	–	CC(C)C(=O)Nc1cccc(C2CCN(C[C@@H](C)COc3cccc(Br)c3)CC2)c1 [Example 371]
358 nM	–	CC(C)C(=O)Nc1cccc(C2CCN(C[C@@H](C)COc3ccccc3Br)CC2)c1 [Example 372]
428 nM	–	CC(C)C(=O)Nc1cccc(C2CCN(C[C@@H](C)COc3cccc(Cl)c3)CC2)c1 [Example 373]
96.8 nM	–	CC(C)C(=O)Nc1cccc(C2CCN(CCCC3OCC(C)(C)CO3)CC2)c1 [Example 374]
186 nM	–	CC(=O)c1cccc(OCCCCN2CCC(c3cccc(NC(=O)C(C)C)c3)CC2)c1 [Example 375]
888 nM	–	COc1cccc(OCCCCN2CCC(c3cccc(NC(=O)C(C)C)c3)CC2)c1 [Example 376]
712 nM	–	COc1ccc(OCCCCN2CCC(c3cccc(NC(=O)C(C)C)c3)CC2)cc1 [Example 377]
308 nM	–	COc1ccccc1OCCCCN1CCC(c2cccc(NC(=O)C(C)C)c2)CC1 [Example 378]

Ki (membranes from Peakr293 cells)	Ki (Peakr293 cell membranes)	Structure (SMILES)
204 nM	–	Cc1ccc(OCCCCN2CCC(c3cccc(NC(=O)C(C)C)c3)CC2)cc1C [Example 379]
309 nM	–	CC(C)C(=O)Nc1cccc(C2CCN(CCCCC3OCCO3)CC2)c1 [Example 380]
235 nM	–	CC(=O)c1cccc(OCCCCCN2CCC(c3cccc(NC(=O)C(C)C)c3)CC2)c1 [Example 381]
319 nM	–	CC(=O)c1cccc(OCCCCCN2CCC(c3cccc(NC(=O)C4CC4)c3)CC2)c1 [Example 382]
290 nM	–	CC(=O)c1cccc(OCCCCCCN2CCC(c3cccc(NC(=O)C(C)C)c3)CC2)c1 [Example 383]
69 nM	–	CC(=O)c1cccc(OCCCCCCN2CCC(c3cccc(NC(=O)C4CC4)c3)CC2)c1 [Example 384]
325 nM	–	CC(C)C(=O)Nc1cccc(C2CCN(CCCC(Oc3ccc(Cl)cc3)c3ccc(Cl)cc3)CC2)c1 (stereo not shown) [Example 385]
26.3 nM	–	CC(C)C(=O)Nc1cccc(C2CCN(CCc3c(-c4ccccc4)n(C)c4ccccc34)CC2)c1 [Example 386]
19.7 nM	–	CC(C)C(=O)Nc1cccc(C2CCN(CCc3c(-c4ccccc4)[nH]c4c3ccc3ccccc34)CC2)c1 [Example 387]
20.7 nM	–	CC(C)C(=O)Nc1cccc(C2CCN(CCCc3c(-c4ccccc4)[nH]c4c3ccc3ccccc34)CC2)c1 [Example 388]
2.2 nM	–	CC(C)C(=O)Nc1cccc(C2CCN(CCCc3c(-c4ccccc4)[nH]c4ccc(OC(F)(F)F)cc34)CC2)c1 [Example 389]
1 nM	–	CC(C)C(=O)Nc1cccc(C2CCN(CCCCc3c(-c4ccccc4)[nH]c4ccc(OC(F)(F)F)cc34)CC2)c1 [Example 390]
21.9 nM	–	CC(C)C(=O)Nc1cccc(C2CCN(CCCc3c(-c4ccccc4)n(C)c4ccccc34)CC2)c1 [Example 391]
18.1 nM	–	CC(C)C(=O)Nc1cccc(C2CCN(CCCCc3c(-c4ccccc4)n(-c4ccccc4)c4ccccc34)CC2)c1 [Example 392]
9.5 nM	–	CC(C)C(=O)Nc1cccc(C2CCN(CCCCCc3c(-c4ccccc4)[nH]c4ccc(OC(F)(F)F)cc34)CC2)c1 [Example 393]
2.4 nM	–	CC(C)C(=O)Nc1cccc(C2CCN(CCCCCc3c(-c4ccccc4)n(C)c4ccccc34)CC2)c1 [Example 395]
13.6 nM	–	CC(C)C(=O)Nc1cccc(C2CCN(CCCCCc3c(-c4ccccc4)[nH]c4c3ccc3ccccc34)CC2)c1 [Example 398]
–	31.9 nM	Cc1ccc2[nH]c(-c3ccccc3)c(CCN3CCC(c4cccc(NC(=O)C(C)C)c4)CC3)c2c1 [Example 399]
–	43.9 nM	COc1cccc2c(CCN3CCC(c4cccc(NC(=O)C(C)C)c4)CC3)c(-c3ccccc3)[nH]c12 [Example 400]
–	44.6 nM	Cc1cccc2c(CCN3CCC(c4cccc(NC(=O)C(C)C)c4)CC3)c(-c3ccccc3)[nH]c12 [Example 401]
–	11.7 nM	Cc1cccc2c(CCCCN3CCC(c4cccc(NC(=O)C(C)C)c4)CC3)c(-c3ccccc3)[nH]c12 [Example 403]
–	12.3 nM	COc1cccc2c(CCCCN3CCC(c4cccc(NC(=O)C(C)C)c4)CC3)c(-c3ccccc3)[nH]c12 [Example 406]
–	16.6 nM	CC(C)C(=O)Nc1cccc(C2CCN(CCCc3cn(-c4ccccc4)c4ccccc34)CC2)c1 [Example 407]
–	21.6 nM	CC(C)C(=O)Nc1cccc(C2CCN(CCc3cn(-c4ccccc4)c4ccccc34)CC2)c1 [Example 408]

Structure (SMILES)	Ki (membranes from Peakr293 cells)	Ki (Peakr293 cell membranes)
CC(C)C(=O)Nc1cccc(C2CCN(CCCOc3cccc(Cl)c3)CC2)c1 [Example 344]	44.6 nM	–
Cc1cccc2c(CCN3CCC(c4cccc(NC(=O)C(C)C)c4)CC3)c[nH]c12 [Example 409]	–	96.7 nM
